Reference: US12371464B2, “Polypeptides and uses thereof” (MEDIMMUNE LIMITED, priority 2020, dated 2025)
Numbered stars: 1 amine (or outer) side, 2 acyl side, 3 side chain; on linkers, the order of the positions; unused ones are H or OH. Bridge positions count the residues as written; N and C are the ends. Side chains are listed from the residue outwards. Peptide text beside a SMILES is read from it. * marks the point of attachment. C20 diacid = O=C(O)CCCCCCCCCCCCCCCCCCC(=O)*; γGlu = O=C(O)[C@H](CCC(=O)[*:2])N[*:1]

Experiments:
[1] = biological target: T1, human calcitonin receptor (hCTR) (Homo sapiens, UniProt P30988); test: cAMP production in 1321N1 cells with stable recombinant expression of human calcitonin receptor (hCTR); type: cell-based; conditions: 1321N1 cells expressing human calcitonin receptor
T1 construct: expressed in transfected cells
T1 sequence (P30988 25-474): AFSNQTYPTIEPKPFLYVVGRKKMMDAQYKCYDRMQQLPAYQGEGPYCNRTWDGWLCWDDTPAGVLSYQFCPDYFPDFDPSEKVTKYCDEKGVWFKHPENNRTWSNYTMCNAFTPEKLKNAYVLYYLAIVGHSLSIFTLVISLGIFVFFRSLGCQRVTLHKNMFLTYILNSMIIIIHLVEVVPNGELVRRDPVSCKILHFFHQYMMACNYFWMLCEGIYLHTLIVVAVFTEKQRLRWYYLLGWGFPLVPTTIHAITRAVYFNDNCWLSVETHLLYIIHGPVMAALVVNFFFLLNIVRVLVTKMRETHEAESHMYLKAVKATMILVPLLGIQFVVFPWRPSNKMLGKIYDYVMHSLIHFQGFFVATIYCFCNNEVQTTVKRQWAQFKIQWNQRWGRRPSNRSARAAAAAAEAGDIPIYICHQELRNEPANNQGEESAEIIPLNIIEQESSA
Method: (§1) The functional activities of lipidated pramlintide analogue peptides, such as cAMP production, were tested in 1321N1 cell line with stable recombinant expression of human calcitonin receptor (hCTR) or human amylin receptor (calcitonin receptor co-expressed with receptor activity modifying protein, RAMP3) (hAMYR3) or HEK cells with stable recombinant expression of rat calcitonin receptor (rat CTR) or rat amylin receptor (calcitonin receptor co-expressed with receptor activity modifying protein, RAMP3) (Rat AMYR3).
Cryopreserved cell stock was thawed rapidly in a water-bath, suspended in assay buffer (0.1% BSA (Sigma #A3059) in HBSS (Sigma #H8264) with 25 mM HEPES, pH 7.4 and containing 0.5 mM IB MX (Sigma #17018)) and spun at 240×g for 5 minutes. Cells were re-suspended in assay buffer at a batch-dependent optimized concentration (e.g. hCTR cells at 0.125×10^5 cells/mL, hAMYR3 cells at 0.125×10^5 cells/mL, rat CTR cells at 1×10^5 cells/mL, rat AMYR3 at 2×10^5 cells/mL).
(§2) The test peptide stock was prepared in DMSO and diluted in assay buffer to reach stated concentrations and transferred in duplicates into a 384-black shallow well microtitre assay plate (Corning #3676). Cells were added to the assay plate, incubated at room temperature for 30 minutes and the CAMP level measured using CAMP dynamic 2 HTRF kit (Cisbio, Cat #62AM4PEJ), following the two step protocol as per manufacturer's recommendations. The plates were read on an Envision (Perkin Elmer) using excitation wavelength of 320 nm and emission wavelengths of 620 nm & 665 nm.
Data was transformed to % Delta F as described in the manufacturer's guidelines and analyzed as percent activation of maximal amylin or calcitonin effect by 4-parameter logistic fit to determine EC50 values. The selectivity of a peptide to hAMYR vs hCTR is defined as a ratio of EC50 values at the two receptors.

[2] = biological target: T2, rat amylin receptor (calcitonin receptor co-expressed with receptor activity modifying protein, RAMP3) (Rat AMYR3) (Rattus norvegicus, UniProt P32214+Q9JJ73); test: cAMP production in HEK cells with stable recombinant expression of rat amylin receptor (Rat AMYR3); type: cell-based; conditions: cAMP HTRF, assay buffer with 0.1% BSA, 30 minutes
T2 construct: expressed in transfected cells
T2 sequence (P32214 25-516): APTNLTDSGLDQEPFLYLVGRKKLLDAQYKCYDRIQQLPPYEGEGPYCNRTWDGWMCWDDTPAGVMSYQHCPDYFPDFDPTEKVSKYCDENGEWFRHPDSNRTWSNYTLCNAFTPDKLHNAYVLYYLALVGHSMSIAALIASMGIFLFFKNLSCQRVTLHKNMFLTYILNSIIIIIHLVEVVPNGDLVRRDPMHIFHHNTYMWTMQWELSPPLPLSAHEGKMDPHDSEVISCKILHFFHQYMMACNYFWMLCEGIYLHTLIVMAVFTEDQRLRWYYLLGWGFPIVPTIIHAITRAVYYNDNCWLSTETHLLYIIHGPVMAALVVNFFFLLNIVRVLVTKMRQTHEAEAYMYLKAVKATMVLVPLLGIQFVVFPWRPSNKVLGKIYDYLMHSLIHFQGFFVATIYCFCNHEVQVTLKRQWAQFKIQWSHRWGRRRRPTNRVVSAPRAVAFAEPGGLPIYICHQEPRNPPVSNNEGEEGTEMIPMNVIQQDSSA
T2 sequence (Q9JJ73 23-147 partner): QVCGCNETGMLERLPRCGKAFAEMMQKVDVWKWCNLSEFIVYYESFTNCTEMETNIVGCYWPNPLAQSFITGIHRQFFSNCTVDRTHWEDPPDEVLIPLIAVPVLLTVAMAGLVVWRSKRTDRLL
Method: as §1, with “AMYR3). […]” for “AMYR3).”
as §2
Data was transformed to % Delta F as described in the manufacturer's guidelines and analyzed as percent activation of maximal amylin or calcitonin effect by 4-parameter logistic fit to determine EC50 values. […]

[3] = tested on: lean rats; test: Rat acute food intake study; type: in vivo, Sprague Dawley rats; conditions: 20 nmol/kg subcutaneously
Method: Male Sprague Dawley rats were obtained from Taconic Denmark, ApS at approximately 7 weeks of age. . . . Rats were implanted with a microchip for identification, housed 4/cage with enrichment, free access to food and water, and allowed one week acclimatisation while non-invasive characterization was performed. Rats were on a 12:12 light:dark cycle that switches at 1 pm:1 am. Food intake was monitored via the HM2 system (Lafayette Instrument) that allows for monitoring in a home cage. As each rat enters an access tunnel to feed, an IR beam is broken, and the implanted microchip is read. Resulting changes to food weight is then assigned to the specific animal. Social order has shown no impact to overall feeding patterns and amounts.
Rats were sorted into groups based on Day-1 body weight and 24-hour accumulated food intake (n=7 per group). On Day 0 rats were weighed, then fasted for 6 hours. Thirty (30) minutes prior to the reintroduction of food, rats were dosed subcutaneously (5 ml/kg) with 20 nmol/kg of test compound or 60 nmol/kg peptide 1 (pramlintide) diluted in an appropriate vehicle, after which food was returned, and lights went out. Automated food intake was monitored for the following 3 days, and rats were weighed once per day.
Food intake per rat was batched into 1-hour intervals and integrated into Gubra's GubraView data management system. Discrete food intake data was exported into MS Excel from which cumulative food intake data was generated. Cumulative food intake data was then transposed into GraphPad Prism (v8.0.1) for analysis of dark period feeding

Row | Compound | EC50 [1] [nM] | EC50 [2] [nM] | Cummulative food intake (% vehicle treated intake) At 12 h [3] [% vehicle treated intake] | Cummulative food intake (% vehicle treated intake) At 24 h [3] [% vehicle treated intake] | Cummulative food intake (% vehicle treated intake) At 48 h [3] [% vehicle treated intake]
1 | CC[C@H](C)[C@H](NC(=O)[C@@H]1CCCN1C(=O)CNC(=O)[C@H](Cc1ccccc1)NC(=O)[C@H](CC(N)=O)NC(=O)[C@H](CC(N)=O)NC(=O)[C@H](CO)NC(=O)[C@H](CO)NC(=O)[C@H](Cc1c[nH]cn1)NC(=O)[C@@H](NC(=O)[C@H](CC(C)C)NC(=O)[C@H](Cc1ccccc1)NC(=O)[C@H](CC(N)=O)NC(=O)[C@H](C)NC(=O)[C@H](CC(C)C)NC(=O)[C@H](CCCNC(=N)N)NC(=O)[C@H](CCC(N)=O)NC(=O)[C@@H](NC(=O)[C@H](C)NC(=O)[C@@H]1CSSC[C@H](NC(=O)[C@@H](N)CCCCNC(=O)CC[C@H](NC(=O)CC[C@H](NC(=O)CCCCCCCCCCCCCCCCCCC(=O)O)C(=O)O)C(=O)O)C(=O)N[C@@H](CC(N)=O)C(=O)N[C@@H]([C@@H](C)O)C(=O)N[C@@H](C)C(=O)N[C@@H]([C@@H](C)O)C(=O)N1)[C@@H](C)O)C(C)C)C(=O)N[C@@H](CC(C)C)C(=O)N1CCC[C@H]1C(=O)N1CCC[C@H]1C(=O)N[C@H](C(=O)N[C@@H](CC(N)=O)C(=O)N[C@H](C(=O)NCC(=O)N[C@@H](CO)C(=O)N[C@@H](CCCNC(=N)N)C(=O)N[C@H](C(=O)N[C@@H](Cc1ccc(O)cc1)C(N)=O)[C@@H](C)O)C(C)C)[C@@H](C)O [Peptide 114] (H-K([γGlu-γGlu-C20 diacid])CNTATCATQRLANFLVHSSNNFGPILPPTNVGSRTY-NH2; disulfide 2-7; N-terminus assumed) | 15.8 | 0.0122 | 42.3 | 45.1 | 53.8
2 | CC[C@H](C)[C@H](NC(=O)[C@H](C)NC(=O)[C@@H]1CCCN1C(=O)[C@H](Cc1ccccc1)NC(=O)[C@H](CC(N)=O)NC(=O)[C@@H]1CCCN1C(=O)[C@H](CO)NC(=O)[C@H](CO)NC(=O)[C@H](Cc1c[nH]cn1)NC(=O)[C@@H](NC(=O)[C@H](CC(C)C)NC(=O)[C@H](Cc1ccccc1)NC(=O)[C@H](CC(N)=O)NC(=O)[C@H](C)NC(=O)[C@H](CC(C)C)NC(=O)[C@H](CCCNC(=N)N)NC(=O)[C@H](CCC(N)=O)NC(=O)[C@@H](NC(=O)[C@H](C)NC(=O)[C@@H]1CSSC[C@H](NC(=O)[C@@H](N)CCCCNC(=O)CC[C@H](NC(=O)CC[C@H](NC(=O)CCCCCCCCCCCCCCCCCCC(=O)O)C(=O)O)C(=O)O)C(=O)N[C@@H](CC(N)=O)C(=O)N[C@@H]([C@@H](C)O)C(=O)N[C@@H](C)C(=O)N[C@@H]([C@@H](C)O)C(=O)N1)[C@@H](C)O)C(C)C)C(=O)N[C@@H](CC(C)C)C(=O)N[C@@H](CO)C(=O)N1CCC[C@H]1C(=O)N[C@H](C(=O)N[C@@H](CC(N)=O)C(=O)N[C@H](C(=O)NCC(=O)N[C@@H](CO)C(=O)N[C@@H](CC(N)=O)C(=O)N[C@H](C(=O)N[C@@H](Cc1ccc(O)cc1)C(N)=O)[C@@H](C)O)C(C)C)[C@@H](C)O [Peptide 115] (H-K([γGlu-γGlu-C20 diacid])CNTATCATQRLANFLVHSSPNFPAILSPTNVGSNTY-NH2; disulfide 2-7; N-terminus assumed) | 7.65 | 0.0226 | 42.4 | 41.3 | 52.2
